Source: ChEMBL document CHEMBL1201862, “PubChem BioAssay data set” (2004)
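Results reflect a 48-hour exposure of cells in 96-well plates to compound at five concentrations. GI50 marks 50% less growth.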 Active and inactive are the calls of the source. Cut-off read from the data, not from the text of the source: active = GI50 up to about 1.1 µM and inactive = higher.

What was measured:
Test in all cases: inhibition of tumour cell growth, NCI panel, 48 h
786-0 = system: 786-0
A498 = system: A498
A549 = system: A549
ACHN = system: ACHN
CAKI-1 = system: CAKI-1
CCRF-CEM = system: CCRF-CEM
COLO 205 = system: COLO 205
DU-145 = system: DU-145
EKVX = system: EKVX
HCC 2998 = system: HCC 2998
HCT-116 = system: HCT-116
HCT-15 = system: HCT-15
HL-60 = system: HL-60
HOP-62 = system: HOP-62
HOP-92 = system: HOP-92
HT-29 = system: HT-29
Hs-578T = system: Hs-578T
IGROV-1 = system: IGROV-1
K562 = system: K562
KM12 = system: KM12
LOX IMVI = system: LOX IMVI
M14 = system: M14
MCF7 = system: MCF7
MDA-MB-231 = system: MDA-MB-231
MDA-MB-435 = system: MDA-MB-435
MOLT-4 = system: MOLT-4
Malme-3M = system: Malme-3M
NCI-H226 = system: NCI-H226
NCI-H23 = system: NCI-H23
NCI-H460 = system: NCI-H460
NCI-H522 = system: NCI-H522
NCI/ADR-RES = system: NCI/ADR-RES
OVCAR-3 = system: OVCAR-3
OVCAR-4 = system: OVCAR-4
OVCAR-5 = system: OVCAR-5
OVCAR-8 = system: OVCAR-8
PC-3 = system: PC-3
RPMI-8226 = system: RPMI-8226
RXF 393 = system: RXF 393
SF-268 = system: SF-268
SF-295 = system: SF-295
SF-539 = system: SF-539
SK-MEL-28 = system: SK-MEL-28
SK-MEL-5 = system: SK-MEL-5
SK-OV-3 = system: SK-OV-3
SN12C = system: SN12C
SNB-19 = system: SNB-19
SR = system: SR
SW-620 = system: SW-620
T47D = system: T47D
TK-10 = system: TK-10
U-251 = system: U-251
UACC-257 = system: UACC-257
UACC-62 = system: UACC-62
UO-31 = system: UO-31
BT-549 = system: BT-549
SK-MEL-2 = system: SK-MEL-2
SNB-75 = system: SNB-75

## COc1ccc(OC)c2c1C=C[C@H](C1(C)SCCS1)C2C(C)=O (some centres not stated)
786-0
  GI50: 31.7 µM (inactive)
A498
  GI50: 26 µM (inactive)
A549
  GI50: 34.1 µM (inactive)
ACHN
  GI50: 35.2 µM (inactive)
CAKI-1
  GI50: 32.6 µM (inactive)
CCRF-CEM
  GI50: 27.7 µM (inactive)
COLO 205
  GI50: > 10 µM (inactive)
DU-145
  GI50: 28.9 µM (inactive)
EKVX
  GI50: 41.1 µM (inactive)
HCC 2998
  GI50: 50.1 µM (inactive)
HCT-116
  GI50: 23 µM (inactive)
HCT-15
  GI50: 33.1 µM
HL-60
  GI50: 18.2 µM (inactive)
HOP-62
  GI50: 39.8 µM (inactive)
HOP-92
  GI50: 32.8 µM (inactive)
HT-29
  GI50: 18.7 µM (inactive)
Hs-578T
  GI50: 17.2 µM (inactive)
IGROV-1
  GI50: 42.4 µM (inactive)
K562
  GI50: 32.7 µM (inactive)
KM12
  GI50: 32.4 µM (inactive)
LOX IMVI
  GI50: 9.84 µM (inactive)
M14
  GI50: 31.2 µM (inactive)
MCF7
  GI50: 35.4 µM (inactive)
MDA-MB-231
  GI50: 32.2 µM (inactive)
MDA-MB-435
  GI50: 23.9 µM (inactive)
MOLT-4
  GI50: 19.7 µM (inactive)
Malme-3M
  GI50: 20.7 µM (inactive)
NCI-H226
  GI50: 24 µM (inactive)
NCI-H23
  GI50: 22.6 µM (inactive)
NCI-H460
  GI50: 27.9 µM (inactive)
NCI-H522
  GI50: 13.9 µM (inactive)
NCI/ADR-RES
  GI50: 32.2 µM (inactive)
OVCAR-3
  GI50: 29.3 µM (inactive)
OVCAR-4
  GI50: 42.5 µM (inactive)
OVCAR-5
  GI50: 21.3 µM (inactive)
OVCAR-8
  GI50: 44.2 µM (inactive)
PC-3
  GI50: 26.7 µM (inactive)
RPMI-8226
  GI50: 18.6 µM (inactive)
RXF 393
  GI50: 29.4 µM (inactive)
SF-268
  GI50: 29.6 µM (inactive)
SF-295
  GI50: 23.9 µM (inactive)
SF-539
  GI50: 23.1 µM (inactive)
SK-MEL-28
  GI50: 24.8 µM (inactive)
SK-MEL-5
  GI50: 17.2 µM (inactive)
SK-OV-3
  GI50: 20.4 µM (inactive)
SN12C
  GI50: 35.3 µM (inactive)
SNB-19
  GI50: 27.4 µM (inactive)
SR
  GI50: 19.6 µM (inactive)
SW-620
  GI50: 33.1 µM (inactive)
T47D
  GI50: 24.2 µM (inactive)
TK-10
  GI50: 40.2 µM (inactive)
U-251
  GI50: 26.1 µM (inactive)
UACC-257
  GI50: 35.6 µM (inactive)
UACC-62
  GI50: 20.8 µM (inactive)
UO-31
  GI50: 24.2 µM (inactive)

## CC(C)(C)c1ccc2c(c1)CNCCNCCNCc1cc(C(C)(C)C)ccc1OCC1(CO2)COc2ccc(C(C)(C)C)cc2CNCCNCCNCc2cc(C(C)(C)C)ccc2OC1
ACHN
  GI50: 1.51 µM (inactive)
BT-549
  GI50: 1.5 µM (inactive)
CAKI-1
  GI50: 1.72 µM (inactive)
DU-145
  GI50: 1.49 µM (inactive)
EKVX
  GI50: 0.611 µM (active)
HCC 2998
  GI50: 0.339 µM (active)
HCT-15
  GI50: 1.51 µM
HOP-62
  GI50: 1.87 µM (inactive)
Hs-578T
  GI50: 1.44 µM (inactive)
IGROV-1
  GI50: 0.418 µM (active)
KM12
  GI50: 0.243 µM (active)
M14
  GI50: 0.526 µM (active)
MCF7
  GI50: 0.183 µM (active)
MDA-MB-231
  GI50: 1.41 µM (inactive)
Malme-3M
  GI50: 1.94 µM (inactive)
NCI-H226
  GI50: 0.718 µM (active)
NCI-H23
  GI50: 1.52 µM (inactive)
NCI-H460
  GI50: 0.24 µM (active)
NCI-H522
  GI50: 0.186 µM (active)
NCI/ADR-RES
  GI50: 2.17 µM (inactive)
OVCAR-3
  GI50: 1.33 µM (inactive)
OVCAR-4
  GI50: 1.58 µM (inactive)
OVCAR-5
  GI50: 1.72 µM (inactive)
OVCAR-8
  GI50: 1.76 µM (inactive)
PC-3
  GI50: 0.382 µM (active)
RXF 393
  GI50: 2.05 µM (inactive)
SF-268
  GI50: 1.37 µM (inactive)
SF-539
  GI50: 0.375 µM (active)
SK-MEL-28
  GI50: 10 µM (inactive)
SK-MEL-2
  GI50: 0.914 µM (active)
SK-OV-3
  GI50: 1.53 µM (inactive)
SW-620
  GI50: 0.303 µM (active)
TK-10
  GI50: 1.55 µM (inactive)
UACC-257
  GI50: 1.69 µM (inactive)
UACC-62
  GI50: 1.68 µM (inactive)
UO-31
  GI50: 1.72 µM (inactive)

## O=CC1C(Cl)=Nc2nc3ccccc3n2C1c1ccc([N+](=O)[O-])cc1 (configuration not stated)
786-0
  GI50: 4.3 µM (inactive)
A498
  GI50: 24.7 µM (inactive)
A549
  GI50: 25.2 µM (inactive)
ACHN
  GI50: 2.43 µM (inactive)
BT-549
  GI50: < 0.01 µM (active)
CAKI-1
  GI50: 3.09 µM (inactive)
CCRF-CEM
  GI50: 3.11 µM (inactive)
COLO 205
  GI50: 3.14 µM (inactive)
DU-145
  GI50: 4.74 µM (inactive)
EKVX
  GI50: 24.1 µM (inactive)
HCC 2998
  GI50: 14 µM (inactive)
HCT-116
  GI50: 3.73 µM (inactive)
HCT-15
  GI50: 2.93 µM
HL-60
  GI50: 3.28 µM (inactive)
HOP-62
  GI50: 8.28 µM (inactive)
HOP-92
  GI50: 5.45 µM (inactive)
Hs-578T
  GI50: 57.7 µM (inactive)
IGROV-1
  GI50: 12.3 µM (inactive)
K562
  GI50: 1.8 µM (inactive)
KM12
  GI50: 24.8 µM (inactive)
LOX IMVI
  GI50: 2.18 µM (inactive)
M14
  GI50: 7.93 µM (inactive)
MCF7
  GI50: 3.97 µM (inactive)
MDA-MB-231
  GI50: 14.9 µM (inactive)
MDA-MB-435
  GI50: 4.81 µM (inactive)
MOLT-4
  GI50: 1.71 µM (inactive)
Malme-3M
  GI50: 8.13 µM (inactive)
NCI-H226
  GI50: 3.33 µM (inactive)
NCI-H23
  GI50: 7.96 µM (inactive)
NCI-H460
  GI50: 31.1 µM (inactive)
NCI-H522
  GI50: 3.71 µM (inactive)
NCI/ADR-RES
  GI50: 40.5 µM (inactive)
OVCAR-3
  GI50: 3.85 µM (inactive)
OVCAR-4
  GI50: 13.6 µM (inactive)
OVCAR-5
  GI50: 21.1 µM (inactive)
OVCAR-8
  GI50: 3.95 µM (inactive)
PC-3
  GI50: 4.89 µM (inactive)
RPMI-8226
  GI50: 3.77 µM (inactive)
RXF 393
  GI50: 2.93 µM (inactive)
SF-268
  GI50: 6.84 µM (inactive)
SF-295
  GI50: 23.2 µM (inactive)
SF-539
  GI50: 20.2 µM (inactive)
SK-MEL-28
  GI50: 2.51 µM (inactive)
SK-MEL-2
  GI50: 6.03 µM (inactive)
SK-MEL-5
  GI50: 6.68 µM (inactive)
SN12C
  GI50: 15.4 µM (inactive)
SNB-19
  GI50: 16 µM (inactive)
SNB-75
  GI50: 1.77 µM (inactive)
SR
  GI50: 2.16 µM (inactive)
SW-620
  GI50: 4.8 µM (inactive)
T47D
  GI50: 1.57 µM (inactive)
TK-10
  GI50: 4.54 µM (inactive)
U-251
  GI50: 5.52 µM (inactive)
UACC-257
  GI50: 13.6 µM (inactive)
UACC-62
  GI50: 16.3 µM (inactive)
UO-31
  GI50: 3.88 µM (inactive)

## COc1cc(C2NCCC(c3ccccc3)(c3ccccc3)N2)cc(OC)c1OC (configuration not stated)
786-0
  GI50: 22.6 µM (inactive)
A498
  GI50: 18.7 µM (inactive)
A549
  GI50: 32.4 µM (inactive)
ACHN
  GI50: 61.2 µM (inactive)
CCRF-CEM
  GI50: 39.3 µM (inactive)
COLO 205
  GI50: 16.1 µM (inactive)
DU-145
  GI50: 97.3 µM (inactive)
EKVX
  GI50: > 100 µM (inactive)
HCC 2998
  GI50: 20.7 µM (inactive)
HCT-116
  GI50: 4.43 µM (inactive)
HCT-15
  GI50: 38.5 µM
HL-60
  GI50: 5.83 µM (inactive)
HOP-62
  GI50: 34 µM (inactive)
HOP-92
  GI50: 3.52 µM (inactive)
HT-29
  GI50: 4.66 µM (inactive)
Hs-578T
  GI50: 26.1 µM (inactive)
IGROV-1
  GI50: 27.2 µM (inactive)
KM12
  GI50: 12.6 µM (inactive)
LOX IMVI
  GI50: 13.5 µM (inactive)
M14
  GI50: 11.7 µM (inactive)
MCF7
  GI50: 20.1 µM (inactive)
MDA-MB-231
  GI50: 68.9 µM (inactive)
MDA-MB-435
  GI50: 18.5 µM (inactive)
MOLT-4
  GI50: > 10 µM (inactive)
Malme-3M
  GI50: 19.1 µM (inactive)
NCI-H226
  GI50: 12.7 µM (inactive)
NCI-H23
  GI50: 23.4 µM (inactive)
NCI-H460
  GI50: 9.59 µM (inactive)
NCI/ADR-RES
  GI50: > 100 µM (inactive)
OVCAR-4
  GI50: 81.1 µM (inactive)
OVCAR-8
  GI50: 60.4 µM (inactive)
RPMI-8226
  GI50: 7.36 µM (inactive)
RXF 393
  GI50: 42.7 µM (inactive)
SF-268
  GI50: 52.4 µM (inactive)
SF-295
  GI50: 7.1 µM (inactive)
SF-539
  GI50: 11.3 µM (inactive)
SK-MEL-28
  GI50: 17 µM (inactive)
SK-MEL-5
  GI50: 17.3 µM (inactive)
SK-OV-3
  GI50: 78 µM (inactive)
SN12C
  GI50: 59.3 µM (inactive)
SNB-19
  GI50: 55.7 µM (inactive)
SNB-75
  GI50: 41.7 µM (inactive)
SR
  GI50: 26.4 µM (inactive)
SW-620
  GI50: 19 µM (inactive)
T47D
  GI50: 58.2 µM (inactive)
TK-10
  GI50: 9.31 µM (inactive)
U-251
  GI50: 32.9 µM (inactive)
UACC-257
  GI50: 18.2 µM (inactive)
UACC-62
  GI50: 25.2 µM (inactive)
UO-31
  GI50: 12.2 µM (inactive)
